# Reference: patent US20060106099A1, “Novel inhibitors of ubiquitin isopeptidases” (priority 2002, published 2006)
# Experiments:
# ubiquitin isopeptidases [1] = assay: Ubiquitin isopeptidase activity, Ub-PEST substrate, lysates of treated RKO and HCT 116 cells; type: cell-based, human; conditions: cells treated 6, 20 or 60 μM, 12 h
# Method: A) Inhibition of isopeptidase proteolysis of Ub-PEST substrate. RKO and HCT 116 cells were treated with DMSO vehicle, 6, 20, or 60 μM of Δ12-PGJ2, DBA, NSC-302979, or curcumin, 60 μM PGB1, 60 μM NSC-156236, or 60 μM DPTP for 12 h, 37° C. Cell lysates from each treatment were incubated with Ub-PEST, as described in materials and methods. Samples were fractionated by SDS-PAGE and proteins detected with ubiquitin epitopes immunochemically (HCT 116 ^+/+ western blot shown as example of raw data). […] B) Inhibition of isopeptidase activity by test panel compounds. Isopeptidase activity was determined by measuring via densitometry, the amount of Ub generated by isopeptidase cleavage of Ub-PEST. Bar graph patterns are DMSO vehicle (black), Δ12-PGJ2 (hatched), DBA (horizontal lines), NSC-302979 (white), PGB1 (diagonally downward right lines), and NSC-156236 (diagonally downward left lines). The amount of Ub generated in the vehicle treated sample (panel A, lane 2) is arbitrarily designated 100%.
# Cellular isopeptidase enzymatic activity was measured with two assays that used different substrates. In one assay ubiquitin-PEST (Ub-PEST) was used, a full-length ubiquitin molecule with an 18 amino acid c-terminal peptide extension (total mass=10.5 kDa). Ubiquitin isopeptidases specifically cleave the 18 amino acid peptide extension, releasing full-length ubiquitin (8.5 kDa).
# Briefly, 6×10^5 cells were incubated with 0-60 μM of test compounds for 12 hrs. Cells were lysed in 50 μL of 25 mM HEPES, 5 mM EDTA, 0.1% CHAPS, 5 mM ATP, pH 7.5. The protein concentration of each sample was adjusted to 0.3 mg/mL and incubated with 50 μg/mL Ub-PEST for 45 minutes at 25° C. Under these conditions, Ub-PEST hydrolysis occurs at a linear rate. 20 μL samples were mixed with 20 μL 2× Laemmli buffer, boiled briefly, and fractionated by SDSPAGE. Isopeptidase activity was monitored by determining the amount of product (8.5 kDa ubiquitin) formation.
# ubiquitin isopeptidases [2] = assay: Ubiquitin isopeptidase activity, z-LRGG-AMC substrate, lysates of treated RKO and HCT 116 cells; type: cell-based, human; conditions: cells treated 6, 20 or 60 μM, 12 h
# Method: RKO (upper) and HCT 116 ^+/+ cells (lower) were treated with DMSO vehicle, 6, 20, or 60 μM of Δ12-PGJ2, DBA, NSC-302979, or curcumin, 60 μM PGB1, 60 μM NSC-156236, or 60 μM DPTP for 12 h at 37° C. Cell lysates (0.5 mg/mL) from each treatment were incubated with the isopeptidase substrate, z-LRGG-AMC, for 3 h, 37° C. The amount of AMC cleaved by isopeptidase was determined fluorometrically, as described in Materials and Methods.
# The second assay used a fluorescent tetrapeptide, z-LRGG-AMC, as a substrate that mimics the carboxy-terminus of ubiquitin. Isopeptidase activity hydrolyzes the bond between the c-terminal glycine and the fluorophore. This tetrapeptide also undergoes slow proteolysis by the catalytic subunit of the proteasome. To minimize this background rate of proteolysis cell lysates were incubated with 30 μM MG115 for 30 minutes at 4° C., prior to substrate incubation (>90% proteasome inhibition). Cells were teeated as above, lysed in 250 μL of lysis buffer per sample, and adjusted protein concentration to 0.5 mg/mL prior to incubation with MG115. Next, z-LRGG-AMC substrate was added and fluorescence was quantified of the AMC moiety cleaved by isopeptidase action.
# [3] = test system: polyubiquitin conjugates in RKO-E6 cells; assay: Accumulation of polyubiquitin in RKO-E6 cells (immunoblot); type: cell-based, human; conditions: EC80 or 60 μM, 6-24 h
# Method: A) Accumulation of polyubiquitin. RKO-E6 cells were treated with DMSO vehicle for 24 h, 37° C., or with the concentrations of test compounds that gave 80% cell death (as determined by cell viability assay at 48 h) for 6, 12, or 24 h, 37° C. […] Schematic depicting p53 degradation via the proteasome pathway in RKO cells versus RKO-E6 cells. The activity of the HPV E6 oncoprotein hastens p53 degradation in RKO-E6 cells. ii. RKO and RKO-E6 cells were treated with vehicle, etoposide (50 μM), MG115 (20 μM), Δ12-PGJ2 (60 μM), NSC-302979 (20 μM, DBA (20 μM), curcumin (60 μM), PGB1 (60 μM), NSC-156236, (60 XM)or DPTP 60 μM for 6 h, 37° C. Lysates were fractionated by SDS-PAGE and their p53 content determined immunochemically. iii. p53 levels were measured by densitometry and the ratio of p53 protein in RKO-E6 cells/RKO cells calculated.
# The medium was removed and cells lysed in 50 mM Tris, pH 7.4, 100 mM NaCl, 2 mM EDTA with 0.1% SDS, 0.1% deoxycholate, 1× complete protease inhibitor mixture. Protein concentration was measured by the Bradford method. Equal portions of the total cell lysate were fractionated from each sample (12.5 μg of protein) by SDS-PAGE. Proteins were transferred to poly(vinylidene difluoride) blocked with 5% (w/v) nonfat dry milk in Trisbuffered saline [20 mM Tris-HCl, pH 7.5, 100 mM sodium chloride, 0.1% (v/v) Tween 20]. Proteins were detected immunochemically by using primary antibodies directed against p53 (1:4000) or ubiquitin (1:1000), followed by horseradish peroxidase-conjugated secondary antibodies (1:4000). Antigen-antibody complexes were detected with enhanced chemiluminescence reagents. Gels were scanned and quantified intensities using Kodak 1D Image Analysis Software.
# p53 = p53 accumulation, ratio RKO-E6 cells/RKO cells (immunoblot, densitometry); type: cell-based, human; conditions: 6 h; etoposide 50 μM, MG115, NSC-302979, DBA 20 μM, others 60 μM
# How it was run: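 RKO-E6 cells exposed at 37° C for 6, 12 or 24 h to compound concentrations giving 80% cell death at 48 h; for p53, RKO and RKO-E6 cells treated 6 h. Lysates (12.5 μg protein) immunoblotted for ubiquitin or p53 with ECL detection; p53 quantified by densitometry as RKO-E6/RKO ratio.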
# RKO cells [4] = test system: RKO cells
# Method: (§1) Cell viability was measured with MTT reagent as described in materials and methods.
# (§2) Cell viability was detected by the MTT assay. Briefly, 1×10^5 cells were incubated per well of a sterile, 96-well assay plate with 0-60 μM of test compounds for 48 hours. MTT reagent was added to each well, final concentration of 0.5 mg/mL, and incubated for an additional 3 hours. The media was aspirated and remaining MTT reagent from each well and added 100 μL of HCl:isopropanol (1:24). The absorbance of each sample was measured at 405 nm.
# HCT 116 +/+ cells [5] = test system: HCT 116 +/+ cells
# isopeptidase = conditions: cited from earlier work
# RKO cells [6] = assay: MTT cell viability assay, RKO cells; conditions: 48 h, MTT, isogenic pair
# Method: as §1, §2
# HCT 116 +/+ cells [7] = assay: MTT cell viability assay, HCT 116 p53 +/+ cells; conditions: 48 h, MTT, isogenic pair
smiles,measurement,setting,value
CCCCC[C@H](O)/C=C/C1=C(CCCCCCC(=O)O)C(=O)CC1 [PGB1],inhibition of isopeptidase cleavage of Ub-PEST,ubiquitin isopeptidases [1],did not inhibit isopeptidase activity
same,inhibition of z-LRGG-AMC hydrolysis by ubiquitin isopeptidases,ubiquitin isopeptidases [2],did not
same,cellular accumulation of polyubiquitin conjugates,[3],did not cause appreciable cellular accumulation of ubiquitin conjugates
same,ratio of p53 protein [RKO-E6 cells/RKO cells],p53,significantly less than unity
same,EC50,RKO cells [4],> 60 µM
same,EC50,RKO-E6 cells,> 60 µM
same,EC50,HCT 116 +/+ cells [5],> 60 µM
same,EC50,HCT 116 −/− cells,> 60 µM
same,isopeptidase inhibition relative to Δ12-PGJ2,isopeptidase,inactive
same,cell death in RKO compared with RKO-E6 cells,RKO cells [6],did not cause significant cell death
same,cell death in HCT 116 +/+ compared with HCT 116 −/− cells,HCT 116 +/+ cells [7],did not cause significant cell death
